US20230085307A1, “PYRIDAZINONE COMPOUND AND HERBICIDE” (NISSAN CHEMICAL CORPORATION, priority 2019, published 2023)

Tests used:
[1] = test system: late watergrass; experiment: Test Example 2: herbicidal activity, application during weed generation under submerged conditions (Table 17, symbol A); format: in vivo, late watergrass (Echinochloa oryzicola); conditions: AAH 320 g/ha; application during weed generation, submerged conditions
Summary of the method: (§1)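 Alluvial soil in Wagner pots was flooded to 4 cm depth and sown with the three weeds together; pots were kept in a greenhouse at 25° C. to 30° C. At the one to two leaf stage, an emulsion formulation diluted in water to a set rate went onto the water surface; scored three weeks later.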

[2] = test system: Japanese bulrush; experiment: Test Example 2: herbicidal activity, application during weed generation under submerged conditions (Table 17, symbol B); format: in vivo, Japanese bulrush (Schoenoplectus juncoides); conditions: AAH 320 g/ha; application during weed generation, submerged conditions
Summary of the method: as §1

[3] = test system: oval-leafed pondweed; experiment: Test Example 2: herbicidal activity, application during weed generation under submerged conditions (Table 17, symbol C); format: in vivo, oval-leafed pondweed (Monochoria vaginalis); conditions: AAH 320 g/ha; application during weed generation, submerged conditions
Summary of the method: as §1

[4] = test system: barnyard grass; experiment: Test Example 3: herbicidal effect by foliage application, Wagner pot (Table 18, symbol H); format: in vivo, barnyard grass (Echinochloa crus-galli); conditions: 320 g/ha
Summary of the method: (§2)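 Plants were sown in alluvial soil held under 0.1–0.5 cm standing water and grown 14 days in a greenhouse at 25–30 °C. An emulsifiable formulation, water-diluted to the set dose, was then sprayed onto the foliage, and effects were scored three weeks later using previously defined criteria.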

[5] = test system: Chinese sprangletop; experiment: Test Example 3: herbicidal effect by foliage application, Wagner pot (Table 18, symbol D); format: in vivo, chinese sprangletop (Leptochloa chinensis); conditions: 320 g/ha
Summary of the method: as §2

[6] = test system: rice flat sedge; experiment: Test Example 3: herbicidal effect by foliage application, Wagner pot (Table 18, symbol E); format: in vivo, rice flat sedge (Cyperus iria); conditions: 320 g/ha
Summary of the method: as §2

[7] = test system: southern crabgrass; experiment: Test Example 4: herbicidal effect by soil treatment (Table 19, symbol F); format: in vivo, southern crabgrass (Digitaria ciliaris); conditions: 320 g/ha
Summary of the method: (§3)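 Seeds were sown in sterilized diluvial soil and covered with about 1.5 cm of soil. An emulsion formulation diluted with water to a predetermined herbicide amount was sprayed evenly onto the soil surface. Plants grew in a greenhouse at 25° C. to 30° C., and the effect was scored three weeks after application using criteria from an earlier test.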

[8] = test system: green foxtail; experiment: Test Example 4: herbicidal effect by soil treatment (Table 19, symbol G); format: in vivo, green foxtail (Setaria viridis); conditions: 320 g/ha
Summary of the method: as §3

[9] = test system: barnyard grass; experiment: Test Example 4: herbicidal effect by soil treatment (Table 19, symbol H); format: in vivo, barnyard grass (Echinochloa crus-galli); conditions: 320 g/ha
Summary of the method: as §3

[10] = test system: wild oat; experiment: Test Example 4: herbicidal effect by soil treatment (Table 19, symbol I); format: in vivo, wild oat (Avena fatua); conditions: 320 g/ha
Summary of the method: as §3

[11] = test system: blackgrass; experiment: Test Example 4: herbicidal effect by soil treatment (Table 19, symbol J); format: in vivo, blackgrass (Alopecurus myosuroides); conditions: 320 g/ha
Summary of the method: as §3

[12] = test system: Italian ryegrass; experiment: Test Example 4: herbicidal effect by soil treatment (Table 19, symbol K); format: in vivo, Italian ryegrass (Lolium multiflorum); conditions: 320 g/ha
Summary of the method: as §3

[13] = test system: windgrass; experiment: Test Example 4: herbicidal effect by soil treatment (Table 19, symbol L); format: in vivo, windgrass (Apera spica-venti); conditions: 320 g/ha
Summary of the method: as §3

[14] = test system: velvetleaf; experiment: Test Example 4: herbicidal effect by soil treatment (Table 19, symbol M); format: in vivo, velvetleaf (Abutilon theophrasti); conditions: 320 g/ha
Summary of the method: as §3

[15] = test system: redroot pigweed; experiment: Test Example 4: herbicidal effect by soil treatment (Table 19, symbol N); format: in vivo, redroot pigweed (Amaranthus retroflexus); conditions: 320 g/ha
Summary of the method: as §3

[16] = test system: lambsquarters; experiment: Test Example 4: herbicidal effect by soil treatment (Table 19, symbol O); format: in vivo, lambsquarters (Chenopodium album); conditions: 320 g/ha
Summary of the method: as §3

[17] = test system: chickweed; experiment: Test Example 4: herbicidal effect by soil treatment (Table 19, symbol P); format: in vivo, common chickweed (Stellaria media); conditions: 320 g/ha
Summary of the method: as §3

[18] = test system: false cleavers; experiment: Test Example 4: herbicidal effect by soil treatment (Table 19, symbol Q); format: in vivo, false cleavers (Galium spurium); conditions: 320 g/ha
Summary of the method: as §3

[19] = test system: persian speedwell; experiment: Test Example 4: herbicidal effect by soil treatment (Table 19, symbol R); format: in vivo, Persian speedwell (Veronica persica); conditions: 320 g/ha
Summary of the method: as §3

[20] = test system: southern crabgrass; experiment: Test Example 5: herbicidal effect by foliage application, plastic box (Table 20, symbol F); format: in vivo, southern crabgrass (Digitaria ciliaris); conditions: foliage application, 320 g/ha, 3 weeks after application
Summary of the method: (§4)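 Plants sown in sterilized diluvial soil and grown 14 days in a greenhouse at 25° C to 30° C, then sprayed on the foliage with the compound's emulsion diluted in water to a predetermined herbicide amount. Injury to weeds and crops scored three weeks after application on a visual rating scale.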

[21] = test system: green foxtail; experiment: Test Example 5: herbicidal effect by foliage application, plastic box (Table 20, symbol G); format: in vivo, green foxtail (Setaria viridis); conditions: foliage application, 320 g/ha, 3 weeks after application
Summary of the method: as §4

[22] = test system: barnyard grass; experiment: Test Example 5: herbicidal effect by foliage application, plastic box (Table 20, symbol H); format: in vivo, barnyard grass (Echinochloa crus-galli); conditions: foliage application, 320 g/ha, 3 weeks after application
Summary of the method: as §4

[23] = test system: wild oat; experiment: Test Example 5: herbicidal effect by foliage application, plastic box (Table 20, symbol I); format: in vivo, wild oat (Avena fatua); conditions: foliage application, 320 g/ha, 3 weeks after application
Summary of the method: as §4

[24] = test system: blackgrass; experiment: Test Example 5: herbicidal effect by foliage application, plastic box (Table 20, symbol J); format: in vivo, blackgrass (Alopecurus myosuroides); conditions: foliage application, 320 g/ha, 3 weeks after application
Summary of the method: as §4

[25] = test system: Italian ryegrass; experiment: Test Example 5: herbicidal effect by foliage application, plastic box (Table 20, symbol K); format: in vivo, Italian ryegrass (Lolium multiflorum); conditions: foliage application, 320 g/ha, 3 weeks after application
Summary of the method: as §4

[26] = test system: windgrass; experiment: Test Example 5: herbicidal effect by foliage application, plastic box (Table 20, symbol L); format: in vivo, windgrass (Apera spica-venti); conditions: foliage application, 320 g/ha, 3 weeks after application
Summary of the method: as §4

[27] = test system: velvetleaf; experiment: Test Example 5: herbicidal effect by foliage application, plastic box (Table 20, symbol M); format: in vivo, velvetleaf (Abutilon theophrasti); conditions: foliage application, 320 g/ha, 3 weeks after application
Summary of the method: as §4

[28] = test system: lambsquarters; experiment: Test Example 5: herbicidal effect by foliage application, plastic box (Table 20, symbol O); format: in vivo, lambsquarters (Chenopodium album); conditions: foliage application, 320 g/ha, 3 weeks after application
Summary of the method: as §4

[29] = test system: false cleavers; experiment: Test Example 5: herbicidal effect by foliage application, plastic box (Table 20, symbol Q); format: in vivo, false cleavers (Galium spurium); conditions: foliage application, 320 g/ha, 3 weeks after application
Summary of the method: as §4

[30] = test system: persian speedwell; experiment: Test Example 5: herbicidal effect by foliage application, plastic box (Table 20, symbol R); format: in vivo, Persian speedwell (Veronica persica); conditions: foliage application, 320 g/ha, 3 weeks after application
Summary of the method: as §4

CCCC(=O)Oc1c(C)nn(C)c(=O)c1-c1c(-c2ccc(F)cc2)sc2ccc(F)cc12 [2-002]
herbicidal effect rating, A: late watergrass [1]: 2 (Herbicidal rate of 20% or more and less than 40%)
herbicidal effect rating, B: Japanese bulrush [2]: 0 (Herbicidal rate of 5% or less (almost no effect))
herbicidal effect rating, C: oval-leafed pondweed [3]: 3 (Herbicidal rate of 40% or more and less than 70%)
herbicidal effect on H (barnyard grass), rating 0-5 [4]: 5 (Herbicidal rate of 90% or more (almost completely withered))
herbicidal effect on D (Chinese sprangletop), rating 0-5 [5]: 5 (Herbicidal rate of 90% or more (almost completely withered))
herbicidal effect on E (rice flat sedge), rating 0-5 [6]: 5 (Herbicidal rate of 90% or more (almost completely withered))
herbicidal effect rating, F: southern crabgrass [7]: 5 (Herbicidal rate of 90% or more (almost completely withered))
herbicidal effect rating, G: green foxtail [8]: 5 (Herbicidal rate of 90% or more (almost completely withered))
herbicidal effect rating, H: barnyard grass [9]: 4 (Herbicidal rate of 70% or more and less than 90%)
herbicidal effect rating, I: wild oat [10]: 3 (Herbicidal rate of 40% or more and less than 70%)
herbicidal effect rating, J: blackgrass [11]: 1 (Herbicidal rate of 5% or more and less than 20%)
herbicidal effect rating, K: Italian ryegrass [12]: 5 (Herbicidal rate of 90% or more (almost completely withered))
herbicidal effect rating, L: windgrass [13]: 1 (Herbicidal rate of 5% or more and less than 20%)
herbicidal effect rating, M: velvetleaf [14]: 5 (Herbicidal rate of 90% or more (almost completely withered))
herbicidal effect rating, N: redroot pigweed [15]: 5 (Herbicidal rate of 90% or more (almost completely withered))
herbicidal effect rating, O: lambsquarters [16]: 4 (Herbicidal rate of 70% or more and less than 90%)
herbicidal effect rating, P: chickweed [17]: 3 (Herbicidal rate of 40% or more and less than 70%)
herbicidal effect rating, Q: false cleavers [18]: 4 (Herbicidal rate of 70% or more and less than 90%)
herbicidal effect rating, R: persian speedwell [19]: 5 (Herbicidal rate of 90% or more (almost completely withered))
effect on southern crabgrass (F) [20]: 5 (Herbicidal rate of 90% or more (almost completely withered))
effect on green foxtail (G) [21]: 5 (Herbicidal rate of 90% or more (almost completely withered))
effect on barnyard grass (H) [22]: 5 (Herbicidal rate of 90% or more (almost completely withered))
effect on wild oat (I) [23]: 4 (Herbicidal rate of 70% or more and less than 90%)
effect on blackgrass (J) [24]: 4 (Herbicidal rate of 70% or more and less than 90%)
effect on Italian ryegrass (K) [25]: 5 (Herbicidal rate of 90% or more (almost completely withered))
effect on windgrass (L) [26]: 3 (Herbicidal rate of 40% or more and less than 70%)
effect on velvetleaf (M) [27]: 5 (Herbicidal rate of 90% or more (almost completely withered))
effect on lambsquarters (O) [28]: 5 (Herbicidal rate of 90% or more (almost completely withered))
effect on false cleavers (Q) [29]: 5 (Herbicidal rate of 90% or more (almost completely withered))
effect on persian speedwell (R) [30]: 5 (Herbicidal rate of 90% or more (almost completely withered))
